Test [1] concerns pERK level in KYSE520 cells. Kind of test: p-Erk cellular assay in KYSE520 (Mesoscale). The format is cell-based. The following applies: 2 h incubation, read-out: pERK1/2 in KYSE520 IC50. As to the method:
(§1) p-Erk Cellular Assay in MDA-MB-468 and KYSE520:
(§2) The effect of SHP2 inhibitors on pERK level was assessed using phospho-specific antibody using Mesoscale quantification platform. For measuring change in pERK levels using mesoscale, 30,000 cells of MDA MB468 and KYSE520 cells were plated in 96-well tissue culture treated plate in 175 ul volume of media. After an overnight incubation at 37° C., various SHP2 inhibitors were added in different concentration to each well maintaining duplicate wells across plates and incubated with compounds for 2 h at 37° C. followed by a wash with ice cold PBS buffer. The cells were then lysed in lysis buffer and processed and analyzed for p-ERK/ERK as per manufacturer's instructions (Mesoscale discovery, cat No. K15107D-3).

The target in test [2] is Full length SHP2 protein (Recombinant Human SHP-2) (Homo sapiens, UniProt Q06124). Kind of test: SHP2 biochemical assay (DiFMUP substrate, activating peptide IRSI_2pY). The following applies: DiFMUP substrate, activating peptide IRSI_2pY, 60 min at RT; read-out: SHP-2 Biochemical assay IC50. As to the method:
The inhibition of SHP2 by compounds of the invention was monitored using the surrogate substrate DiFMUP after protein activation by a peptide bearing two appropriately spaced phosphotyrosine. […] The generation of the DiFMU product by activated SHP2 was monitored through Fluorescence measurement with a PerkinElmer Envision reader.
The inhibitor dose response curves were analyzed with Genedata Screener.

Test [3] concerns pERK level in MDA-MB-468 cells. Kind of test: p-Erk cellular assay in MDA-MB-468 (Mesoscale). The format is cell-based. The note with it: 2 h incubation, read-out: pERK1/2 in MDA-MB-468 IC50. As to the method: as §1, §2

Read-outs that look alike come from different tables or passages of the source. Some results are limits rather than exact numbers.

Regarding “2-((S)-3-amino-3H-spiro[benzofuran-2,4′-piperidin]-1′-yl)-5-(2,3-dichlorophenyl)-6-methylpyrimidine-4-carboxamide [Compound 122]”, the IC50 was 0.048 µM in test [1] and 0.017 µM in test [2].
For the compound `CC1(N)CCN(c2nc(N)c(-c3cccc(Cl)c3Cl)c(C(N)=O)n2)CC1` (atropisomer, axis not shown; (M)) [Compound 26, (4M)-6-Amino-2-(4-amino-4-methyl-piperidin-1-yl)-5-(2,3-dichloro-phenyl)-pyrimidine-4-carboxylic acid amide], the IC50 in test [3] was 8.19 µM; in test [1] it was over 10 µM; in test [2], over 10 µM.
Turning to `Cc1nc(N2CCC(C)(N)CC2)nc(C(N)=O)c1-c1cccc(Cl)c1Cl` (atropisomer, axis not shown; (M)) [Compound 30, (4M)-2-(4-amino-4-methylpiperidin-1-yl)-5-(2,3-dichlorophenyl)-6-methylpyrimidine-4-carboxamide], the IC50 in test [3] is 0.475 µM; in test [2] it was 0.11 µM.
Consider `Cc1nc(N[C@@H]2CCC[C@H](N)C2)nc(C(N)=O)c1-c1cccc(Cl)c1Cl` (atropisomer, axis not shown; (M)) [Compound 88, (4M)-2-{[(1R,3S)-3-aminocyclohexyl]amino}-5-(2,3-dichlorophenyl)-6-methylpyrimidine-4-carboxamide], for which the IC50 was found to be 4.25 µM in test [1] (Homo sapiens, KYSE-520, 2 h) and 0.41 µM in test [2].
Turning to `CC1(N)CCN(c2nc(Cl)c(-c3cccc(Cl)c3Cl)c(C(N)=O)n2)CC1` (atropisomer, axis not shown; (P)) [Compound 79, (4P)-2-(4-amino-4-methylpiperidin-1-yl)-6-chloro-5-(2,3-dichlorophenyl)-pyrimidine-4-carboxamide], the values for the IC50 in test [3], in test [1] and in test [2] were 0.177 µM, 0.837 µM and 0.03 µM, respectively.
For the compound `NC[C@@]12CCC[C@@H]1CN(c1nc(N)c(-c3cccc(Cl)c3Cl)c(C(N)=O)n1)C2` (atropisomer, axis not shown; (P)) [Compound 98, (5P)-2-[(3aR,6aS)-3a-(aminomethyl)octahydrocyclopenta[c]pyrrol-2-yl]-6-amino-5-(2,3-dichlorophenyl)pyrimidine-4-carboxamide], the IC50 in test [3] (Homo sapiens, MDA-MB-468, 2 h) worked out at 0.395 µM; in test [1] (Homo sapiens, KYSE-520, 2 h) it was 1.2 µM; in test [2], 0.049 µM.
`C[C@@H]1OCC2(CCN(c3nc(N)c(-c4cccc(Cl)c4Cl)c(C(N)=O)n3)CC2)[C@@H]1N` (single isomer, unassigned) [Compound 66]: the IC50 in test [3] (Homo sapiens, MDA-MB-468, 2 h) came to 0.503 µM; in test [1] (Homo sapiens, KYSE-520, 2 h), 0.863 µM.
Consider `Cc1nc(N2CCC3(CC2)CC(F)(F)C[C@H]3N)nc(C(N)=O)c1-c1cccc(Cl)c1Cl` (single isomer, unassigned) [Compound 96], for which, in test [1] (Homo sapiens, KYSE-520, 2 h), the IC50 came out at 0.993 µM.
Take `NC[C@@]12CCCC[C@@H]1CN(c1nc(N)c(-c3cccc(Cl)c3Cl)c(C(N)=O)n1)C2` (single isomer, unassigned) [Compound 100]: the IC50 in test [1] (Homo sapiens, KYSE-520, 2 h) worked out at 12.8 µM; in test [2] it was 0.5 µM.
With `NC[C@]12CCC[C@H]1CN(c1nc(N)c(-c3cccc(Cl)c3Cl)c(C(N)=O)n1)C2` (single isomer, unassigned) [Compound 104], the IC50 in test [1] (Homo sapiens, KYSE-520, 2 h) stood at 2.25 µM; in test [2], 0.12 µM.
In the case of `CC1(N)CCN(c2ncc(-c3cccc(Cl)c3Cl)c(C(N)=O)n2)CC1` [Compound 1, 2-(4-amino-4-methylpiperidin-1-yl)-5-(2,3-dichlorophenyl)pyrimidine-4-carboxamide], the IC50 in test [3] (Homo sapiens, MDA-MB-468, 2 h) amounted to 12 µM.
As for `CC1(N)CCN(c2nc(N)c(-c3cccc(Cl)c3)c(C(N)=O)n2)CC1` [Compound 2, 6-Amino-2-(4-amino-4-methyl-piperidin-1-yl)-5-(3-chlorophenyl)-pyrimidine-4-carboxylic Acid Amide], the IC50 in test [3] (Homo sapiens, MDA-MB-468, 2 h) was found to be 3.08 µM; in test [2], 2.1 µM.
As to `CC1(N)CCN(c2nc(Cl)c(-c3cccc(Cl)c3Cl)c(C(N)=O)n2)CC1` [Compound 16, 2-(4-Amino-4-methyl-piperidin-1-yl)-6-chloro-5-(2,3-dichlorophenyl)-pyrimidine-4-carboxylic Acid Amide], the IC50 in test [3] came to 0.516 µM; in test [1] (Homo sapiens, KYSE-520, 2 h) it was 1.14 µM.
For the compound `Cc1nc(N2C[C@@H]3CC[C@H](N)[C@@H]3C2)nc(C(N)=O)c1-c1cccc(Cl)c1Cl` [Compound 74, 2-((3aS,4S,6aR)-4-Amino-hexahydro-cyclopenta-[c]pyrrol-2-yl)-5-(2,3-dichloro-phenyl)-6-methyl-pyrimidine-4-carboxylic acid amide], in test [2], the IC50 is over 10 µM.
The same measure, in the same setting: the same measure for `Cc1nc(N2C[C@@H]3CC[C@@H](N)[C@@H]3C2)nc(C(N)=O)c1-c1cccc(Cl)c1Cl` [Compound 75, 2-((3aS,4R,6aR)-4-Amino-hexahydro-cyclopenta[c]pyrrol-2-yl)-5-(2,3-dichloro-phenyl)-6-methyl-pyrimidine-4-carboxylic acid amide]: 2.1 µM.
Same read-out and setting: the same measure for `Cc1nc(N2C[C@@H]3CCC(N)[C@H]3C2)nc(C(N)=O)c1-c1cccc(Cl)c1Cl` (stereo partly drawn) [Compound 76, 2-((3aR,6aR)-4-Amino-hexahydro-cyclopenta-[c]pyrrol-2-yl)-5-(2,3-dichloro-phenyl)-6-methyl-pyrimidine-4-carboxylic acid amide]: 1 µM; for `Cc1nc(N2C[C@H]3CC[C@H](N)[C@H]3C2)nc(C(N)=O)c1-c1cccc(Cl)c1Cl` [Compound 77, 2-((3aR,4S,6aS)-4-Amino-hexahydro-cyclopenta-[c]pyrrol-2-yl)-5-(2,3-dichloro-phenyl)-6-methyl-pyrimidine-4-carboxylic acid amide]: over 10 µM.
As to `Cc1nc(N2C[C@@H](N)[C@@H](O)C2)nc(C(N)=O)c1-c1cccc(Cl)c1Cl` [Compound 80, 2-((3R,4S)-3-Amino-4-hydroxy-pyrrolidin-1-yl)-5-(2,3-dichloro-phenyl)-6-methyl-pyrimidine-4-carboxylic acid amide], in test [2], the IC50 stood at 5.3 µM.
Same read-out and setting: the same measure for `Cc1nc(N2CCC(C)(N)CC2)nc(C(N)=O)c1-c1ccc(F)cc1Cl` [Compound 82, 2-(4-Amino-4-methyl-piperidin-1-yl)-5-(2-chloro-4-fluoro-phenyl)-6-methyl-pyrimidine-4-carboxylic acid amide]: 2 µM.
Take `Cc1nc(N2CCC(C)(N)CC2)nc(C(N)=O)c1-c1cnccc1Cl` [Compound 83, 2-(4-Amino-4-methyl-piperidin-1-yl)-5-(4-chloro-pyridin-3-yl)-6-methyl-pyrimidine-4-carboxylic acid amide]: the IC50 in test [2] amounted to 14 µM.
On the same count and under the same terms, the same measure for `Cc1nc(N2C[C@H](N)[C@@H](O)C2)nc(C(N)=O)c1-c1cccc(Cl)c1Cl` [Compound 84, 2-((3S,4S)-3-Amino-4-hydroxy-pyrrolidin-1-yl)-5-(2,3-dichloro-phenyl)-6-methyl-pyrimidine-4-carboxylic acid amide]: 6.3 µM; for `Cc1nc(N2CCC(C)(N)CC2)nc(C(N)=O)c1-c1ccncc1` [Compound 86, 2-(4-Amino-4-methyl-piperidin-1-yl)-6-methyl-5-pyridin-4-yl-pyrimidine-4-carboxylic acid amide]: over 10 µM.
For `CC1(N)CCCN(c2nc(N)c(-c3cccc(Cl)c3Cl)c(C(N)=O)n2)CC1` (stereo not shown) [Compound 91, 6-Amino-2-(4-amino-4-methyl-azepan-1-yl)-5-(2,3-dichloro-phenyl)-pyrimidine-4-carboxylic acid amide], the IC50 in test [1] (Homo sapiens, KYSE-520, 2 h) came out at 2.6 µM; in test [2], 0.1 µM.
Take `Cc1nc(N[C@H]2CC[C@@H](N)CC2)nc(C(N)=O)c1-c1cccc(Cl)c1Cl` [Compound 93, 2-(4-Amino-cyclohexyl-amino)-5-(2,3-dichloro-phenyl)-6-methyl-pyrimidine-4-carboxylic acid amide]: the IC50 in test [2] is 2.3 µM.
`Cc1nc(N2CCC(C)(N)CC2)nc(C(N)=O)c1-c1cccc(C(F)(F)F)c1Cl` [Compound 111, 2-(4-Amino-4-methyl-piperidin-1-yl)-5-(2-chloro-3-trifluoromethyl-phenyl)-6-methyl-pyrimidine-4-carboxylic acid amide]: the IC50 in test [1] (Homo sapiens, KYSE-520, 2 h) came to 4.7 µM; in test [2], 0.53 µM.
Regarding `Cc1nc(N2CCC3(CC2)Oc2ncccc2[C@@H]3N)nc(C(N)=O)c1-c1cccc(Cl)c1Cl` [Compound 125, (4M)-2-[(3S)-3-amino-3H-spiro[furo[2,3-b]pyridine-2,4′-piperidin]-1′-yl]-5-(2,3-dichlorophenyl)-6-methylpyrimidine-4-carboxamide], the IC50 in test [2] turned out to be 0.53 µM.
The same measure, in the same setting: the same measure for `Cc1nc(N2CCC3(CC2)Oc2ncccc2[C@@H]3N)nc(C(N)=O)c1-c1cccc(Cl)c1Cl` [Compound 127, (4P)-2-[(3S)-3-amino-3H-spiro[furo[2,3-b]pyridine-2,4′-piperidin]-1′-yl]-5-(2,3-dichlorophenyl)-6-methylpyrimidine-4-carboxamide]: over 10 µM.

(Values after US11033547B2, “Carboxamide-pyrimidine derivatives as SHP2 antagonists” (Merck Patent GmbH, priority 2019, dated 2021).)
